Data taken from patent US9045505B2, “Nitric oxide donors” (University of Otago, priority 2006, dated 2015).

Experiments:
[1] = system: C2C12 cells; assay: S-nitrosation of cellular protein thiols in C2C12 cells; type: cell-based, mouse; settings: 5 μM
Description: FIG. 11 is a series of graphs showing S-nitrosation of mitochondrial thiols by MitoSNAP. (a) Time course of S-nitrosation of mitochondrial proteins by MitoSNAP. Liver mitochondria (1 mg protein) were incubated in 1 ml KCl buffer supplemented with rotenone and succinate in the presence of 5 μM MitoSNAP. At various times mitochondria were treated with 10 mM N-ethylmaleimide (NEM), isolated by centrifugation and the S-nitrosothiol content assessed. Data are of a typical experiment showing means±range of duplicate samples for each time point, each measured in duplicate. The experiment was repeated twice. (b) S-nitrosation of mitochondrial proteins by different concentrations of MitoSNAP and SNAP. Aliquots of liver mitochondria were incubated with the indicated concentrations of MitoSNAP or SNAP for […] in the presence or absence of 500 nM FCCP and then assessed for S-nitrosothiol content as in (a). For the +NEM sample, 10 mM NEM was added to the mitochondria and 1 min later 5 μM MitoSNAP was added and incubated for a further 2.5 min. Data are of a typical experiment showing means±range of duplicate samples for each time point, each measured in duplicate. The experiment was repeated twice. (c) S-nitrosation of cellular protein thiols by MitoSNAP. […] After further incubation for 5 min at 37° C. in the dark, the medium was removed and the content of S-nitrosated proteins was measured. […] After 5 min at 37° C. in the dark, the medium was removed and the cells were processed to isolate a mitochondria-enriched fraction and S-nitrosated protein was then determined Data are mean±sem of triplicate determinations (+MitoSNO1), or mean±range of duplicate determinations (+FCCP). […] S-nitrosated thiols were then selectively tagged with Cy3 maleimide and protein (10 μg) was then separated on a 12.5% SDS PAGE gel which was stained with coomassie blue and scanned for Cy3 fluorescence. The Cy3 fluorescence (SNO) and coomassie staining (coomassie) of each gel is shown. […]

[2] = system: mice; assay: Cardiac ischemia-reperfusion injury in vivo (LAD occlusion); parameters: species or system mouse; settings: 100 ng/kg into left ventricle 5 min prior to reperfusion, 30 min LAD occlusion, 24 h recovery
Description: Male C57BL/6 mice (˜25 g) were purchased from the Jackson Laboratory and handled in accordance with the procedures of the University of Rochester Committee on Animal Research. All surgical procedures were sterile and performed as described previously. Briefly, analgesics (acetaminophen 0.75 mg/ml in drinking water) were administered 24 hr before, and during the perioperative period.
Following anesthesia (Avertin, 2,2,2-tribromoethanol, […] IP) mice were intubated with a 20 gauge PE catheter which was connected to a rodent ventilator (Harvard MiniVent, 120 cycles/min., 0.3 ml tidal volume). A thoracotomy was performed and the left anterior descending coronary artery (LAD) was then ligated and occluded with a 9-0 proline suture for 30 min. MitoSNAP or MitoNAP (100 ng/kg) were dissolved in 0.9% NaCl saline (final volume 50 μl) and then administered 5 min prior to reperfusion into left ventricle (LV) using 30G½ needle. Reperfusion was initiated by removing the suture. The chest and skin were sutured closed, the endotracheal tube removed and the animal returned to its cage to recover. After 24 hrs. the animal was re-anesthetized, the LAD re-ligated, and Evans' blue dye (1.0% w/v, 1.5 ml) perfused via the LV. […] Slices were scanned and infarct/AR ratios determined with NIH ImageJ software.

[3] = system: complex I; settings: 10 μM
Description: (a) Effect of MitoSNAP on mitochondrial respiration. Heart mitochondria (1 mg protein/ml) were incubated in 1 ml KCl medium supplemented with 1 mM phosphate in an oxygen electrode with 5 mM glutamate and 5 mM malate, or succinate, and incubated with 10 μM MitoSNAP, 10 μM MitoNAP or carrier for 2 min (succinate) or 3 min (glutamate/malate), then 250 μM adenosine diphosphate (ADP) was added and the rate of respiration was measured. Respiration in the presence of MitoSNAP is expressed as a percentage of that with MitoNAP, and are means±sem from 3 separate mitochondrial preparations, each determined in triplicate; *p<0.05 by Student's paired t test. […] Bovine heart mitochondrial membranes (0.25 mg protein/ml) were incubated in 1 ml KCl medium in an O2 electrode at 37° C., and incubated with 75 μM MitoSNAP or MitoNAP, or ethanol carrier for 5 min in the presence or absence of rotenone, then 1 mM NADH or 10 mM succinate was added and the rate of respiration was measured. Data are expressed as respiration in the presence of MitoSNAP or MitoNAP as a percentage of the appropriate controls and are means±range of two separate experiments, each determined in triplicate. […] Then protein SNOs were labelled by maleimide-Cy3 and intact mitochondrial respiratory complexes were separated by BN-PAGE which was then scanned for Cy3 fluorescence. […]

CC(=O)NC(C(=O)NCCCCC[P+](c1ccccc1)(c1ccccc1)c1ccccc1)C(C)(C)SN=O.CS(=O)(=O)[O-] (stereo not drawn) [MitoSNAP, [5-(2-acetylamino-3-methyl-3-nitrosothio-butyrylamino)-penty1]-triphenylphosphonium methanesulfonate]
time of maximum S-nitrosation of cell proteins [1]: 5 to 10 min
S-nitrosation of proteins of a mitochondria-enriched cell fraction ([1]; 5 min): extensively S-nitrosated
extent of cell protein S-nitrosation ([1]; 5 min): considerably greater than that by SNAP
protection against heart damage (infarct/area at risk) [2]: Protects Against Cardiac Ischemia-Reperfusion Injury
inhibition of respiration relative to MitoNAP ([3]; glutamate/malate): about 30%
effect on respiration ([3]; succinate): very little effect
